Legend:
Assay type in all cases: in vivo
Lolium perenne (LOLPE) [1] = assay: B2 Post-emergence herbicidal activity; details: post-emergence application, rate 1000 g/ha, evaluated after 13 days
Experimental: (§1) Seeds of a variety of test species were sown in standard soil in pots: Triticum aestivium (TRZAW), Avena fatua (AVEFA), Alopecurus myosuroides (ALOMY), Echinochloa crus-galli (ECHCG), Lolium perenne (LOLPE), Zea Mays (ZEAMX), Abutilon theophrasti (ABUTH), Amaranthus retroflexus (AMARE) and Setaria fabenri (SETFA). After 8 days cultivation (post-emergence) under controlled conditions in a glasshouse (at 24/16° C., day/night; 14 hours light; 65% humidity), the plants were sprayed with an aqueous spray solution derived from the formulation of the technical active ingredient in acetone I water (50:50) solution containing 0.5% Tween 20 (polyoxyethelyene sorbitan monolaurate, CAS RN 9005-64-5). The test plants were then grown in a glasshouse under controlled conditions (at 24/16° C., day/night; 14 hours light; 65% humidity) and watered twice daily. After 13 days, the test was evaluated (5=total damage to plant; 0=no damage to plant).

Avena fatua (AVEFA) [2] = assay: B1 Pre-emergence herbicidal activity; design: key: 5=total damage to plant; 0=no damage to plant; details: pre-emergence application, rate 1000 g/ha, evaluated after 13 days
Procedure, shortened: (§2)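 Seeds sown in standard soil in pots, held one day in a glasshouse (24/16 °C day/night, 14 h light, 65% humidity), then sprayed pre-emergence with compound in acetone/water (50:50) with 0.5% Tween 20. Plants grown under the same conditions, watered twice daily; damage scored after 13 days (0 = none, 5 = total).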

[3] = tested on: Triticum aestivium (TRZAW); assay: B1 Pre-emergence herbicidal activity; design: key: 5=total damage to plant; 0=no damage to plant; details: pre-emergence application, rate 1000 g/ha, evaluated after 13 days
Procedure, shortened: as §2

[4] = tested on: Alopecurus myosuroides (ALOMY); assay: B1 Pre-emergence herbicidal activity; design: key: 5=total damage to plant; 0=no damage to plant; details: pre-emergence application, rate 1000 g/ha, evaluated after 13 days
Procedure, shortened: as §2

Setaria fabenri (SETFA) = assay: B2 Post-emergence herbicidal activity; design: key: 5=total damage to plant; 0=no damage to plant; details: post-emergence application, rate 1000 g/ha, evaluated after 13 days
Procedure, shortened: (§3)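 Plants grown 8 days in standard soil in pots, then sprayed post-emergence with active ingredient in acetone/water (50:50) with 0.5% Tween 20. Glasshouse at 24/16 °C day/night, 14 h light, 65% humidity, watered twice daily. Damage scored after 13 days on a 0–5 scale (5 = total damage).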

[5] = tested on: Triticum aestivium (TRZAW); assay: B2 Post-emergence herbicidal activity; design: key: 5=total damage to plant; 0=no damage to plant; details: post-emergence application, rate 1000 g/ha, evaluated after 13 days
Procedure, shortened: as §3

[6] = tested on: Alopecurus myosuroides (ALOMY); assay: B2 Post-emergence herbicidal activity; design: key: 5=total damage to plant; 0=no damage to plant; details: post-emergence application, rate 1000 g/ha, evaluated after 13 days
Procedure, shortened: as §3

[7] = tested on: Echinochloa crus-galli (ECHCG); assay: B1 Pre-emergence herbicidal activity; design: key to Pre-emergence herbicidal activity, ECHCG (damage score 0-5): 5=total damage to plant; 0=no damage to plant; details: pre-emergence application, rate 1000 g/ha, evaluated after 13 days
Procedure, shortened: as §2

Avena fatua (AVEFA) [8] = assay: B2 Post-emergence herbicidal activity; details: post-emergence application, rate 1000 g/ha, evaluated after 13 days
Experimental: as §1

[9] = tested on: Echinochloa crus-galli (ECHCG); assay: B2 Post-emergence herbicidal activity; design: key to Post-emergence herbicidal activity, ECHCG (damage score 0-5): 5=total damage to plant; 0=no damage to plant; details: post-emergence application, rate 1000 g/ha, evaluated after 13 days
Procedure, shortened: as §3

Setaria fabenr (SETFA) = assay: B1 Pre-emergence herbicidal activity; design: key to Pre-emergence herbicidal activity, SETFA (damage score 0-5): 5=total damage to plant; 0=no damage to plant; details: pre-emergence application, rate 1000 g/ha, evaluated after 13 days
Procedure, shortened: as §2

Lolium perenne (LOLPE) [10] = assay: B1 Pre-emergence herbicidal activity; design: key to Pre-emergence herbicidal activity, LOLPE (damage score 0-5): 5=total damage to plant; 0=no damage to plant; details: pre-emergence application, rate 1000 g/ha, evaluated after 13 days
Procedure, shortened: as §2

Row | SMILES | Post-emergence herbicidal activity, LOLPE (damage score 0-5) (Lolium perenne (LOLPE) [1]) | Pre-emergence herbicidal activity, AVEFA (damage score 0-5) (Avena fatua (AVEFA) [2]) | Pre-emergence herbicidal activity, TRAZW (damage score 0-5) [3] | Pre-emergence herbicidal activity, ALOMY (damage score 0-5) [4] | Post-emergence herbicidal activity, SETFA (damage score 0-5) (Setaria fabenri (SETFA)) | Post-emergence herbicidal activity, TRAZW (damage score 0-5) [5] | Post-emergence herbicidal activity, ALOMY (damage score 0-5) [6] | Pre-emergence herbicidal activity, ECHCG (damage score 0-5) [7] | Post-emergence herbicidal activity, AVEFA (damage score 0-5) (Avena fatua (AVEFA) [8]) | Post-emergence herbicidal activity, ECHCG (damage score 0-5) [9] | Pre-emergence herbicidal activity, SETFA (damage score 0-5) (Setaria fabenr (SETFA)) | Pre-emergence herbicidal activity, LOLPE (damage score 0-5) (Lolium perenne (LOLPE) [10])
1 | Cc1nc(-c2cncc(F)c2)ccc1N(C(=O)C(C)C)C(=O)C(C)C [Compound C1] | 4 | 2 | 1 | 0 | 5 | 1 | 1 | 5 | 3 | 5 | 5 | 1
2 | Cc1nc(-c2cncnc2)ccc1NC(=O)C(C)C [Compound C2, 2-methyl-N-(2-methyl-6-pyrimidin-5-yl-3-pyridyl)propanamide] | 2 | 0 | 0 | 0 | 5 | 1 | 1 | 3 | 3 | 5 | 5 | 1
3 | O=C(Nc1ccc(-c2cncnc2)nc1C(F)(F)F)c1ccccc1 [Compound C17] | 2 | 3 | 0 | 0 |  | 0 | 0 | 4 | 3 | 5 | 5 | 1
4 | O=C(CC1CCCCC1)Nc1ccc(-c2cncc(F)c2)nc1C(F)(F)F [Compound C19] | 1 | 2 | 0 | 0 |  | 0 | 0 | 3 | 3 | 4 | 5 | 0
5 | O=C(Nc1ccc(-c2cncc(F)c2)nc1C(F)(F)F)C1CCCCC1 [Compound C20] | 2 | 2 | 0 | 0 |  | 0 | 0 | 4 | 3 | 4 | 5 | 0
6 | O=C(Nc1ccc(-c2cncc(F)c2)nc1C(F)(F)F)C1CCC1 [Compound C21] | 2 | 2 | 0 | 0 |  | 0 | 0 | 4 | 3 | 5 | 5 | 1
7 | CCCC(=O)Nc1ccc(-c2cncc(F)c2)nc1C(F)(F)F [Compound C22] | 2 | 2 | 0 | 0 |  | 0 | 0 | 4 | 3 | 4 | 5 | 1
8 | CCC(=O)N(CC1CC1)c1ccc(-c2cncc(F)c2)nc1C(F)(F)F [Compound C108] |  | 1 | 0 | 0 | 4 | 0 | 0 | 2 |  | 3 | 5 | 1
9 | CCC(=O)Nc1ccc(-c2cncnc2)nc1C#N [Compound C116] | 1 | 1 |  | 0 | 5 | 0 | 0 | 3 | 2 | 4 | 5 | 0

From US11230538B2, “Herbicides” (SYNGENTA PARTICIPATIONS AG, priority 2016, dated 2022)
